Reference: US12404261B2, “Compounds and compositions for treating conditions associated with cGAS” (Novartis AG, priority 2020, dated 2025)

Target: human truncated cGAS enzyme (147-522 human cGAS) (Homo sapiens (Human), UniProt Q8N884)
Assay: Quantification of cGAS protein inhibition (cGAMP formation measured by LC-MS/MS)
Assay type: biochemical
Experimental: A reagent buffer was prepared in filtered and autoclaved water according to the following: • 50 mM Tris-buffer pH 7.5 (1 M Tris-buffer pH 7.5, Invitrogen, Cat. No. 15567-027); • 50 mM NaCl (5 M NaCl, Sodium Chloride Solution, Sigma, 59222C-); • 5 mM MgCl2 (1 M MgCl2, Sigma, M1028); • 0.1 mM ZnCl2 (Zinc Chloride [7646-85-7], powder, Cell Culture Tested, Sigma, Z-0152); and • 0.001% Tween 20 (TWEEN 20, Sigma Aldrich, P1379-).
A buffer for the cGAS enzyme was prepared in filtered and autoclaved water according to the following: • 50 mM Tris-buffer pH 7.5; • 5 mM MgCl2; and • 0.001% Tween 20.
Compounds were dispensed to a […]. The human truncated cGAS enzyme (4.2 mg/mL 147-522 human cGAS, MW 43,909 g/mol) was stored in 50 mM Tris, 500 mM NaCl, 5% (v/v) glycerol at pH 8 and diluted in the cGAS buffer enzyme shortly before use. The enzyme solution was transferred into the reagent buffer to give a final concentration of 30 nM. The reaction was started by mixing the enzyme with ISD (a 45 bp double stranded DNA, MW 27,670 g/mol, 5 mM), GTP and ATP to a final concentration of 5 μM, 0.5 mM and 0.5 mM respectively in a final volume of 10 μl. The reaction plates were then centrifuged at 1000 rpm for 1 minute and incubated at room temperature for 1 h. After 1 h of incubation, [^5Ns]-2′3′-cGAMP to a final concentration of 200 nM and 30 μL of 100% acetonitrile/0.175% of TFA were added to the reaction mixture. The plates were centrifuged at 1000 rpm for 1 minute before being sealed for 3 seconds at 170° C. using a ThermoScientific sealer (ALPS™ 50V) and an aluminum sealing cover (Pierce Seal, 4titude, Product Code: 4TI-0531).
The concentration of cGAMP was measured on a LC-MS/MS system consisting of a THERMO Dionex Ultimate LC system with a high pressure pump, an autosampler, a column heating compartment (Reinach, Switzerland) and a SCIEX Triple Quad 5500 (Framingham, MA, USA) mass spectrometer for detection. The sample plates were centrifuged for 10 minutes at 2000 rpm. Up to three plates were placed in the autosampler for injection. An aliquot of 10 μL of each sample was injected on an XBridge BEH Amide 3.5 μm, 2.1×50 mm column (P/N 186004859) with an XBridge BEH Amide 5 μm 2.1×5 mm VanGuard Cartridge (P/N 186007760) pre-column (both WATERS, MA, USA) held at 40° C. An isocratic flow of 1.0 mL/min solvent (60% ACN, 8 mM ammonium acetate, 5 mM ammonium hydroxide, 0.04% acetic acid) was applied and sprayed into the ion source of the mass spectrometers. The MS parameters were optimized based on the properties of the compounds to be detected and run in positive multi-reaction mode (MRM) based on the mass transitions. LC and MS parameters were also optimized to allow for a sample-to-sample measuring time of approximately 75 sec and a run time of 8 hours per 384-well plate. All data were analyzed with Excel; and the dose response curves were generated using the auto fitting function of XLfit. The IC50 was determined by plotting the cGAMP concentration ratio (cGAMP divided by the internal standard [^15Ns]-2′3′-cGAMP) versus the concentration of compound.

[1] = reported for the potential mixture in solution of co-existing tautomers and/or racemates
[2] = reported for the potential mixture of co-existing tautomers and/or racemates

human truncated cGAS enzyme (147-522 human cGAS), sequence (Q8N884 147-522): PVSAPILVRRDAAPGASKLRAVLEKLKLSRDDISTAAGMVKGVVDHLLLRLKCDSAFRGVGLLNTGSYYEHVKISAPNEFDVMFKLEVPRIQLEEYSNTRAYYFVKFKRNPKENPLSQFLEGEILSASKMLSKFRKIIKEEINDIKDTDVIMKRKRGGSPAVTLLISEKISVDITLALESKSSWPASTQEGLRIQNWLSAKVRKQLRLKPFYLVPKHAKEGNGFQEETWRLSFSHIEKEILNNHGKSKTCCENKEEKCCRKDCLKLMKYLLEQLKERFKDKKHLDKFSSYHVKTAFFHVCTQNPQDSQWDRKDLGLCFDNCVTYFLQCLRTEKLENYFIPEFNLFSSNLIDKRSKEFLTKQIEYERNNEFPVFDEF

Compound | IC50 [1] | IC50 [2]
COCC(c1nnc(-c2c(-n3ccnc3)c3cc(OC)c(Cl)c(F)c3n2C)[nH]1)N(C)C (racemic) [Example 124, 1-(5-(6-chloro-7-fluoro-3-(1H-imidazol-1-yl)-5-methoxy-1-methyl-1H-indol-2-yl)-4H-1,2,4-triazol-3-yl)-2-methoxy-N,N-dimethylethan-1-amine] | 122 nM | 
CNC(COC)c1nnc(-c2c(-n3ccnc3)c3cc(OC)c(Cl)c(F)c3n2C)[nH]1 (racemic) [Example 125, 1-(5-(6-chloro-7-fluoro-3-(1H-imidazol-1-yl)-5-methoxy-1-methyl-1H-indol-2-yl)-4H-1,2,4-triazol-3-yl)-2-methoxy-N-methylethan-1-amine] | 74 nM | 
COc1cc2c(-c3cn[nH]c3)c(-c3nnc(C(F)(F)F)[nH]3)n(C)c2c(F)c1Cl [Example 1, 6-Chloro-7-fluoro-5-methoxy-1-methyl-3-(1H-pyrazol-4-yl)-2-(5-(trifluoromethyl)-4H-1,2,4-triazol-3-yl)-1H-indole] |  | 74 nM
COc1cc2c(-c3cn[nH]c3)c(-c3nnc(C(=O)N(C)C)[nH]3)n(C)c2c(F)c1Cl [Example 2, 5-(6-chloro-7-fluoro-5-methoxy-1-methyl-3-(1H-pyrazol-4-yl)-1H-indol-2-yl)-N,N-dimethyl-4H-1,2,4-triazole-3-carboxamide] |  | 46 nM
COc1cc2c(-c3cn[nH]c3)c(-c3nnc(F)[nH]3)[nH]c2c(F)c1Cl [Example 3, 6-chloro-7-fluoro-2-(5-fluoro-4H-1,2,4-triazol-3-yl)-5-methoxy-3-(1H-pyrazol-4-yl)-1H-indole] |  | 30 nM
COc1cc2c(-c3cn[nH]c3)c(-c3nnc(C(F)(F)F)[nH]3)[nH]c2c(F)c1Cl [Example 4, 6-chloro-7-fluoro-5-methoxy-3-(1H-pyrazol-4-yl)-2-(5-(trifluoromethyl)-4H-1,2,4-triazol-3-yl)-1H-indole] |  | 33 nM
Clc1ccc2c(-c3cn[nH]c3)c(-c3nnc(Br)[nH]3)[nH]c2c1Cl [Example 5, 2-(5-bromo-4H-1,2,4-triazol-3-yl)-6,7-dichloro-3-(1H-pyrazol-4-yl)-1H-indole] |  | 93 nM
N#Cc1cc2c(-c3cn[nH]c3)c(-c3nnc(C(F)(F)F)[nH]3)[nH]c2c(F)c1Cl [Example 6, 6-chloro-7-fluoro-3-(1H-pyrazol-4-yl)-2-(5-(trifluoromethyl)-4H-1,2,4-triazol-3-yl)-1H-indole-5-carbonitrile] |  | 152 nM
COCC(=O)c1nnc(-c2[nH]c3c(Cl)c(Cl)ccc3c2-c2cn[nH]c2)[nH]1 [Example 7, 1-(5-(6,7-dichloro-3-(1H-pyrazol-4-yl)-1H-indol-2-yl)-4H-1,2,4-triazol-3-yl)-2-methoxyethan-1-one] |  | 30 nM
Cn1c(-c2nnc(C(F)(F)F)[nH]2)c(-c2cn[nH]c2)c2cc(C#N)c(Cl)c(F)c21 [Example 8, 6-chloro-7-fluoro-1-methyl-3-(1H-pyrazol-4-yl)-2-(5-(trifluoromethyl)-4H-1,2,4-triazol-3-yl)-1H-indole-5-carbonitrile] |  | 134 nM
COCC(F)(F)c1nnc(-c2[nH]c3c(Cl)c(Cl)ccc3c2-c2cn[nH]c2)[nH]1 [Example 9, 6,7-dichloro-2-(5-(1,1-difluoro-2-methoxyethyl)-4H-1,2,4-triazol-3-yl)-3-(1H-pyrazol-4-yl)-1H-indole] |  | 30 nM
COCC(F)c1nnc(-c2[nH]c3c(Cl)c(Cl)ccc3c2-c2cn[nH]c2)[nH]1 (stereo not drawn) [Example 10, 6,7-dichloro-2-(5-(1-fluoro-2-methoxyethyl)-4H-1,2,4-triazol-3-yl)-3-(1H-pyrazol-4-yl)-1H-indole] |  | 74 nM
Cn1c(-c2nnc(C(F)(F)F)[nH]2)c(-c2cn[nH]c2)c2ccc(Cl)c(Cl)c21 [Example 12, 6,7-dichloro-1-methyl-3-(1H-pyrazol-4-yl)-2-(5-(trifluoromethyl)-4H-1,2,4-triazol-3-yl)-1H-indole] |  | 48 nM
FC(F)(F)Cc1nnc(-c2[nH]c3c(Cl)c(Cl)ccc3c2-c2cn[nH]c2)[nH]1 [Example 13, 6,7-dichloro-3-(1H-pyrazol-4-yl)-2-(5-(2,2,2-trifluoroethyl)-4H-1,2,4-triazol-3-yl)-1H-indole] |  | 178 nM
Fc1ccc2c(-c3cn[nH]c3)c(-c3nnc(C(F)(F)F)[nH]3)[nH]c2c1F [Example 14, 6,7-difluoro-3-(1H-pyrazol-4-yl)-2-(5-(trifluoromethyl)-4H-1,2,4-triazol-3-yl)-1H-indole] |  | 196 nM
OCCc1nnc(-c2[nH]c3c(Cl)c(Cl)ccc3c2-c2cn[nH]c2)[nH]1 [Example 15, 2-(5-(6,7-dichloro-3-(1H-pyrazol-4-yl)-1H-indol-2-yl)-4H-1,2,4-triazol-3-yl)ethan-1-ol] |  | 188 nM
Fc1c(Cl)ccc2c(-c3cn[nH]c3)c(-c3nnc(C(F)(F)F)[nH]3)[nH]c12 [Example 16, 6-chloro-7-fluoro-3-(1H-pyrazol-4-yl)-2-(5-(trifluoromethyl)-4H-1,2,4-triazol-3-yl)-1H-indole] |  | 44 nM
COc1c(Cl)ccc2c(-c3cn[nH]c3)c(-c3nnc(C(F)(F)F)[nH]3)[nH]c12 [Example 17, 6-chloro-7-methoxy-3-(1H-pyrazol-4-yl)-2-(5-(trifluoromethyl)-4H-1,2,4-triazol-3-yl)-1H-indole] |  | 1490 nM
FC(F)(F)c1nnc(-c2[nH]c3cc(Cl)c(Cl)cc3c2-c2cn[nH]c2)[nH]1 [Example 18, 5,6-dichloro-3-(1H-pyrazol-4-yl)-2-(5-(trifluoromethyl)-4H-1,2,4-triazol-3-yl)-1H-indole] |  | 165 nM
N#Cc1c(Cl)ccc2c(-c3cn[nH]c3)c(-c3nnc(C(F)(F)F)[nH]3)[nH]c12 [Example 19, 6-chloro-3-(1H-pyrazol-4-yl)-2-(5-(trifluoromethyl)-4H-1,2,4-triazol-3-yl)-1H-indole-7-carbonitrile] |  | 150 nM
COc1cc2c(-c3cn[nH]c3)c(-c3nnc(C(F)(F)F)[nH]3)n(C)c2cc1Cl [Example 20, 6-chloro-5-methoxy-1-methyl-3-(1H-pyrazol-4-yl)-2-(5-(trifluoromethyl)-4H-1,2,4-triazol-3-yl)-1H-indole] |  | 116 nM
CCOC(=O)c1nnc(-c2[nH]c3c(Cl)c(Cl)ccc3c2-c2cn[nH]c2)[nH]1 [Example 21, ethyl 5-(6,7-dichloro-3-(1H-pyrazol-4-yl)-1H-indol-2-yl)-4H-1,2,4-triazole-3-carboxylate] |  | 30 nM
NC(=O)c1nnc(-c2[nH]c3c(Cl)c(Cl)ccc3c2-c2cn[nH]c2)[nH]1 [Example 22, 5-(6,7-dichloro-3-(1H-pyrazol-4-yl)-1H-indol-2-yl)-4H-1,2,4-triazole-3-carboxamide] |  | 30 nM
Cn1c(-c2nnc(C(F)(F)F)[nH]2)c(-c2cn[nH]c2)c2cc(Cl)c(Cl)cc21 [Example 23, 5,6-dichloro-1-methyl-3-(1H-pyrazol-4-yl)-2-(5-(trifluoromethyl)-4H-1,2,4-triazol-3-yl)-1H-indole] |  | 112 nM
COc1cc2c(-c3cn[nH]c3)c(-c3nnc(C(F)(F)F)[nH]3)[nH]c2cc1Cl [Example 24, 6-chloro-5-methoxy-3-(1H-pyrazol-4-yl)-2-(5-(trifluoromethyl)-4H-1,2,4-triazol-3-yl)-1H-indole] |  | 69 nM
COc1cc2c(-c3cn[nH]c3)c(-c3nnc(C(F)(F)F)[nH]3)n(CCO)c2cc1Cl [Example 25, 2-(6-chloro-5-methoxy-3-(1H-pyrazol-4-yl)-2-(5-(trifluoromethyl)-4H-1,2,4-triazol-3-yl)-1H-indol-1-yl)ethan-1-ol] |  | 1430 nM
COCCn1c(-c2nnc(C(F)(F)F)[nH]2)c(-c2cn[nH]c2)c2cc(OC)c(Cl)cc21 [Example 26, 6-chloro-5-methoxy-1-(2-methoxyethyl)-3-(1H-pyrazol-4-yl)-2-(5-(trifluoromethyl)-4H-1,2,4-triazol-3-yl)-1H-indole] |  | 1810 nM
